Among the data in patent US6251899A, “Methoximinomethyloxadiazines” (Bayer Aktiengesellschaft, priority 1997, dated 2001) are chromatographic logP and pest or weed control values, retold here.

Molecules are shown by their SMILES.

Data set [1] can be described thus: logP by HPLC (EEC Directive 79/831 Annex V. A8, gradient method, acetonitrile/0.1% aqueous phosphoric acid). Type of data set: physicochemical. How it is done: *The logP values were determined in accordance with EEC Directive 79/831
Annex V. A8 by HPLC (gradient method, acetonitrile/0.1% aqueous phosphoric

A further data set has as its system Venturia inaequalis. The data set can be described thus: Venturia test (apple)/protective. The note with it: 288 h, read-out: Efficacy, apple, protective, 10 g/ha, 12 days after inoculation.
In another data set the test system is Plasmopara viticola. The data set can be described thus: Plasmopara test (grapevine)/protective. The note with it: 144 h, read-out: Efficacy, grapevine, protective, 100 g/ha, 6 days after inoculation.

Procedure for Plasmopara viticola: Solvent: 47 parts by weight of acetone
(§1) Emulsifier: 3 parts by weight of alkylaryl polyglycol ether
After the spray coating has dried on, the plants are inoculated with an aqueous spore suspension of Plasmopara viticola and then remain in an incubation cabin at approximately 20° C. and 100% relative atmospheric humidity for 1 day. The plants are subsequently placed in a greenhouse at approximately 21° C. and approximately 90% relative atmospheric humidity for 5 days. The plants are then moistened and placed in an incubation cabin for 1 day.
Evaluation is carried out 6 days after the inoculation.
Procedure for Venturia inaequalis: Solvent: 47 parts by weight of acetone
as §1
After the spray coating has dried on, the plants are inoculated with aqueous conidia suspension of the causative organism of apple scab Venturia inaequalis and then remain in an incubation cabin at approximately 20° C. and 100% relative atmospheric humidity for 1 day.
The plants are then placed in a greenhouse at approximately 21° C. and a relative atmospheric humidity of approximately 90%.
Evaluation is carried out 12 days after the inoculation.

Consider `CCc1ccccc1Oc1ncnc(Oc2ccccc2C(=NOC)C2=NOCCN2)c1F` [Example 11], for which, in data set [1], the chromatographic logP (as a rule, lipophilicity estimated from chromatographic retention) was 3.32. Also, the pest or weed control at 10 g/ha with Venturia inaequalis is at least 90%. For the same molecule, the pest or weed control at 100 g/ha with Plasmopara viticola was at least 90%.
For the molecule `CON=C(C1=NOCCN1)c1ccccc1Oc1ncnc(Oc2ccccc2C(C)C)c1F` [Example 13], the chromatographic logP in data set [1] was 3.59. For the same molecule, in the data set with Venturia inaequalis, the pest or weed control at 10 g/ha is at least 90%. Moreover, the pest or weed control at 100 g/ha with Plasmopara viticola was at least 90%.
Regarding `CON=C(C1=NOCCN1)c1ccccc1Oc1ncnc(Oc2ccccc2C2CCCC2)c1F` [Example 17], the chromatographic logP in data set [1] was found to be 4.01. In the data set with Venturia inaequalis, the pest or weed control at 10 g/ha was at least 90%. Also, the pest or weed control at 100 g/ha with Plasmopara viticola is at least 90%.
`CON=C(C1=NOCCN1)c1ccccc1Oc1ncnc(Oc2cccc(C)c2)c1F` [Example 20] returned a chromatographic logP in data set [1] of 3.1. Further, the pest or weed control at 10 g/ha with Venturia inaequalis is at least 90%. Moreover, in the data set on Plasmopara viticola, the pest or weed control at 100 g/ha was at least 90%.
As to `CON=C(C1=NOCCN1)c1ccccc1Oc1ncnc(Oc2cccc(C)c2Cl)c1F` [Example 59], in data set [1], the chromatographic logP was 3.34. In addition, the pest or weed control at 10 g/ha in the data set on Venturia inaequalis was at least 90%. Further, in the data set with Plasmopara viticola, the pest or weed control at 100 g/ha is at least 90%.
